PMC7862507, “Adrenomedullin for steroid-resistant ulcerative colitis: a randomized, double-blind, placebo-controlled phase-2a clinical trial” (Journal of Gastroenterology, 2020)

Tested on: patients with steroid-resistant UC
Experiment: Adverse events, safety assessment
Conditions: for Decrease of blood pressure (cardiovascular disorders) / Flushing (cardiovascular disorders) / Gastrointestinal disorders / Head disconfort (nervous system disorders) / Palpitation (cardiovascular disorders) / Rash / Headache (nervous system disorders) / Increase of transaminase / Muscle pain, back pain / Any adverse events: patients with event (%); for Decrease of blood pressure (cardiovascular disorders) / Flushing (cardiovascular disorders) / Gastrointestinal disorders / Head disconfort (nervous system disorders) / Palpitation (cardiovascular disorders) / Rash / Severe adverse events: placebo 0; for Headache (nervous system disorders) / Serious adverse events: placebo 1 (14%); for Increase of transaminase / Muscle pain, back pain: placebo 2 (29%); for Any adverse events: placebo 4 (57%); for Severe adverse events / Serious adverse events: patients with event
Protocol: Safety evaluations including the evaluation of adverse events (AEs) and serious adverse events (SAEs) were conducted throughout the study. Vital signs, blood and urine tests, and a 12-lead ECG were performed at specified times after administration, with monitoring of ECG being assessed from the beginning of every test drug administration until 2 h after the administration.
All data, except for the PK parameters, were collected using an electronic data collection system (Viedoc) and analyzed by Intellim (Tokyo, Japan), an independent CRO. […] The population included in the safety analysis were all patients who received at least 1 day of administration of the test drug. […] The significant level for each test was 5%. All analyses were performed using SAS version 9.3 (SAS Institute, Cary, NC, USA). […] All data are shown as mean ± standard deviation (SD).

For `CC[C@H](C)[C@H](NC(=O)[C@H](CCC(N)=O)NC(=O)[C@H](Cc1c[nH]cn1)NC(=O)[C@H](C)NC(=O)[C@H](CC(C)C)NC(=O)[C@H](CCCCN)NC(=O)[C@H](CCC(N)=O)NC(=O)[C@@H](NC(=O)[C@@H](NC(=O)[C@@H]1CSSC[C@H](NC(=O)CNC(=O)[C@H](Cc2ccccc2)NC(=O)[C@H](CO)NC(=O)[C@H](CCCNC(=N)N)NC(=O)[C@H](CC(C)C)NC(=O)CNC(=O)[C@H](CCC(N)=O)NC(=O)[C@H](Cc2ccccc2)NC(=O)[C@H](CC(N)=O)NC(=O)[C@H](CC(N)=O)NC(=O)[C@H](CCSC)NC(=O)[C@H](CO)NC(=O)[C@H](CCC(N)=O)NC(=O)[C@H](CCCNC(=N)N)NC(=O)[C@@H](N)Cc2ccc(O)cc2)C(=O)N[C@@H](CCCNC(=N)N)C(=O)N[C@@H](Cc2ccccc2)C(=O)NCC(=O)N[C@@H]([C@@H](C)O)C(=O)N1)[C@@H](C)O)C(C)C)C(=O)N[C@@H](Cc1ccc(O)cc1)C(=O)N[C@@H](CCC(N)=O)C(=O)N[C@@H](Cc1ccccc1)C(=O)N[C@H](C(=O)N[C@@H](CC(=O)O)C(=O)N[C@@H](CCCCN)C(=O)N[C@@H](CC(=O)O)C(=O)N[C@@H](CCCCN)C(=O)N[C@@H](CC(=O)O)C(=O)N[C@@H](CC(N)=O)C(=O)N[C@H](C(=O)N[C@@H](C)C(=O)N1CCC[C@H]1C(=O)N[C@@H](CCCNC(=N)N)C(=O)N[C@@H](CO)C(=O)N[C@@H](CCCCN)C(=O)N[C@H](C(=O)N[C@@H](CO)C(=O)N1CCC[C@H]1C(=O)N[C@@H](CCC(N)=O)C(=O)NCC(=O)N[C@@H](Cc1ccc(O)cc1)C(N)=O)[C@@H](C)CC)C(C)C)[C@@H](C)O` [Adrenomedullin], the “Decrease of blood pressure (cardiovascular disorders)” value (“Decrease of blood pressure” for short) (AM 5 ng/kg/min, n = 5) was 0, the “Flushing (cardiovascular disorders)” value (AM 5 ng/kg/min, n = 5) was 0 and the Gastrointestinal disorders (AM 5 ng/kg/min, n = 5) was 2 (40%). The “Head disconfort (nervous system disorders)” value (“Head disconfort” for short) (AM 5 ng/kg/min, n = 5) was 0, the “Palpitation (cardiovascular disorders)” value (AM 5 ng/kg/min, n = 5) was 0 and the Rash (AM 5 ng/kg/min, n = 5) was 0. For the same compound, the “Headache (nervous system disorders)” value (AM 5 ng/kg/min, n = 5) was 3 (60%), the Increase of transaminase (AM 5 ng/kg/min, n = 5) was 0 and the “Muscle pain, back pain” value (AM 5 ng/kg/min, n = 5) was 0. For the same compound, the Any adverse events (AM 5 ng/kg/min, n = 5, n = 7) was 4 (80%), the “Decrease of blood pressure” value (AM 10 ng/kg/min, n = 7) was 1 (14%) and the “Flushing (cardiovascular disorders)” value (AM 10 ng/kg/min, n = 7) was 0. The Gastrointestinal disorders (AM 10 ng/kg/min, n = 7) was 0, the “Head disconfort” value (AM 10 ng/kg/min, n = 7) was 1 (14%) and the “Palpitation (cardiovascular disorders)” value (AM 10 ng/kg/min, n = 7) was 0. For the same compound, the Rash (AM 10 ng/kg/min, n = 7) was 0, the “Headache (nervous system disorders)” value (AM 10 ng/kg/min, n = 7) was 4 (57%) and the Increase of transaminase (AM 10 ng/kg/min, n = 7) was 0. The “Muscle pain, back pain” value (AM 10 ng/kg/min, n = 7) was 0, the Any adverse events (AM 10 ng/kg/min, n = 7) was 6 (86%) and the “Decrease of blood pressure” value (AM 15 ng/kg/min, n = 7) was 1 (14%). For the same compound, the “Flushing (cardiovascular disorders)” value (AM 15 ng/kg/min, n = 7) was 2 (29%), the Gastrointestinal disorders (AM 15 ng/kg/min, n = 7) was 0 and the “Head disconfort” value (AM 15 ng/kg/min, n = 7) was 2 (29%). For the same compound, the “Palpitation (cardiovascular disorders)” value (AM 15 ng/kg/min, n = 7) was 1 (14%), the Rash (AM 15 ng/kg/min, n = 7) was 1 (14%) and the “Headache (nervous system disorders)” value (AM 15 ng/kg/min, n = 7) was 4 (57%). For the same compound, the Increase of transaminase (AM 15 ng/kg/min, n = 7) was 1 (14%), the “Muscle pain, back pain” value (AM 15 ng/kg/min, n = 7) was 0 and the Any adverse events (AM 15 ng/kg/min, n = 7) was 6 (86%). The Severe adverse events (AM 5 ng/kg/min, n = 5) was 0, the Serious adverse events (AM 5 ng/kg/min, n = 5) was 0 and the Severe adverse events (AM 10 ng/kg/min, n = 7) was 0. It also gave a Serious adverse events (AM 10 ng/kg/min, n = 7) of 0, a Severe adverse events (AM 15 ng/kg/min, n = 7) of 0 and a Serious adverse events (AM 15 ng/kg/min, n = 7) of 0.
